The subject of experiment [1] is Porcine ovarian granulosa cells (POGC). In words: Inhibition of SNP-induced apoptosis of porcine ovarian granulosa cells. The format is cell-based. Particulars: SNP 0.5 mM; cells observed after 18 hours. An excerpt:
(§1) Porcine ovaries were washed with PBS buffer, and Porcine ovarian granulosa cells (POGC) were collected by aspiration from follicles with a syringe. Cell fraction was recovered as a precipitate by centrifugation of the suspension. The operation of suspending the cell fraction into PBS buffer and subjecting the resulting suspension to centrifugation was repeated three times to wash the cells. The POGC obtained as a precipitate were suspended again into a culture medium (DMEM containing 10% fetal bovine serum) and cell clumps were disrupted by pipetting. The cell suspension was passed through a mesh to remove contaminating tissue fragments, and then pipetted in 24-well plates for cell culture. The cell suspension was cultured for 2 days in a CO2 incubator according to a conventional procedure (37° C., 5% CO2). Then, the medium was refreshed to remove floating cells and the cultivation was continued further 2 to 3 days until the cells reached subconfluency (0.7 to 2×10^5 cell/well). After the attaching cells were washed with serum-free medium, they were cultured in a serum-free DMEM (containing 5 μg/mL of transferrin, and 40 ng/mL of hydrocortisone, 4 mg/mL of bovine serum albumin (BSA), 100 nM androstendione) and it was possible to continue to culture cells with relatively immature differentiation. […] The cell death was also confirmed by MTT assay. Then, various concentrations of the test compounds were added to the present culture system and the cells were observed after 18 hours.

The test system of experiment [2] is cerebellar granule cells. Kind of experiment: Inhibition of low potassium medium-induced death of cerebellar granule cells. The format is cell-based, rats. The note with it: compound 10 μM; low potassium medium (5 mM KCl); after 18 hours. The method, then: (§2) According to a known method (A Dissection and Tissue Culture Manual of the Nervous System, p. 211, 1989, Alan R, Liss, Inc.), cerebellar granule cells were isolated from the cerebellum of 7 days old rats and cultured. Namely, after conducting isolation procedures described in the above literature, the resulting cells were resuspended in DMEM containing 10% fetal bovine serum, 25 mM KCl and 2 mM glutamine, and seeded in poly-lysine coated plates. After the cells were cultured in a CO2 incubator for 48 hours according to a conventional method, cytosine-1-β-D(+)-arabinofuranoside (Ara-C) (10 μM) was added thereto, and the cell was continued to culture. The following experiments were conducted with the cells of 7 to 14 days old from the start day of the cultivation, the cells having completed neurite extension sufficiently.
It is known that neuronal cells undergo cell death when they are cultured in a medium of low potassium (Proc. Natl. Acad. Sci. U.S.A., volume 90, p 10989, 1993). […] When the test compound 1 (10 μM), the test compound 10 (10 μM), or the test compound 15 (10 μM)coexisted, 50%, 80%, and 85% of cells were respectively alive on an observation made similarly after 18 hours.

The test system of a further experiment is Hela 3S cells. In words: Anti-cell death effect on Hela 3S cells cultured in Krebs Ringer Buffer. The experiment is classed as cell-based, human. Particulars: compound 10 μM. As to the method: Hela 3S cells (culture medium: DMEM containing 10% fetal bovine serum), a cell line derived from human cervical cancer, were seeded into multi 48 well plates and cultured in a CO2 incubator according to conventional procedures. Confirming the subconfluency of a cell culture, the medium was replaced with Krebs Ringer Buffer (120 mM NaCl, […], 1 mM KH2PO4, […], 20 mM HEPES, pH 7.4, 2.57 g/L glucose, 0.05 g/L Phenol Red) and washed three times with the same buffer and cultivation continued in the same buffer. […] When the test compound 1 (10 μM) or the test compound 15 (10 μM) was added in the present culture system and cultivation continued similarly, the proportion of normal cells increased 59% or 77% respectively, and the proportion of necrosis-like cells decreased (1% or 0%, respectively), indicating the anti-cell death effects.

Experiment [3] relates to cerebellar granule cells. In words: Inhibition of hydrogen peroxide-induced death of cerebellar granule cells. The experiment is classed as cell-based, rats. Particulars: compound 10 μM added prior to hydrogen peroxide (10 μM); after 12 hours. As to the method:
as §2

The test system of a further experiment is erythrocytes. Kind of experiment: Inhibition of hydrogen peroxide-induced hemolysis of erythrocytes. Particulars: compound 10 μM added prior to hydrogen peroxide (300 μM); after 24 hours. The experiment is classed as cell-based, Human. The method, then: Human blood was collected and precipitated by a centrifugation (1000 rpm, 5 min) and the precipitate containing erythrocytes was washed three times with PBS and resuspended (about 5×10^8 cells/ml) with DMEM containing 10% fetal bovine serum. Cell suspensions were dispensed into a 48-well plate to become subconfluent (about 5×10^5 cells/0.5 ml/well). When hydrogen peroxide (300 μM) was added and cultivation continued for 24 hours, more than 95% of erythrocytes underwent hemolysis and become dark and ghost-like on an observation under a light microscopy.

The test system of another experiment is undifferentiated POGC. In words: Inhibition of hydrogen peroxide-induced cell death of undifferentiated POGC. The format is cell-based, Porcine. Particulars: compound 0.3 μM added prior to hydrogen peroxide (100 μM); observation after 18 hour.
From the text: as §1, with “Then, various concentrations of the test compounds were added to the present culture system and the cells were observed after 18 hours.” left out

Molecules are shown by their SMILES. Some results are limits rather than exact numbers.

Turning to `Cn1cc(-c2c[nH]c3ccccc23)c(-c2cn(CCCN)c3ccccc23)c1` [Compound 4], in experiment [1], the “MEC (Minimum effective concentration for more than 95% of inhibition of cell death)” value stood at 0.3 µM. Turning to `Cn1cc(-c2c[nH]c3ccccc23)c(-c2c[nH]c3ccccc23)c1` [Compound 1], the “MEC (Minimum effective concentration for more than 95% of inhibition of cell death)” value in experiment [1] turned out to be 0.3 µM. Also, the cells alive with cerebellar granule cells [2] is reported as 50%; in the experiment on cerebellar granule cells [3] it was “more than 80%”. For the same compound, the “proportion of necrosis-like cells” value with Hela 3S cells (after 5 hours (11% without compound)) amounted to 1%. Also, the “proportion of normal cells” value with Hela 3S cells (after 5 hours (42% normal without compound)) is reported as 59%. Also, the inhibition of hemolysis result in the experiment on erythrocytes is recorded as “almost complete inhibition of hemolysis”.

Regarding `Cn1cc(-c2cn(C)c3ccccc23)c(-c2cn(C)c3ccccc23)c1` [Compound 9], in experiment [1], the “MEC (Minimum effective concentration for more than 95% of inhibition of cell death)” value is 0.3 µM. On the same count and under the same terms, the same measure for `Cn1cc(-c2cn(CCCN)c3ccccc23)c(-c2cn(CCCN)c3ccccc23)c1` [Compound 5]: 0.1 µM. As for `Cc1cccc2c(-c3cn(C)cc3-c3c[nH]c4c(C)cccc34)c[nH]c12` [Compound 10], the “MEC (Minimum effective concentration for more than 95% of inhibition of cell death)” value in experiment [1] is 0.03 µM. In addition, the figures for the cells alive in the experiment on cerebellar granule cells [2] and with cerebellar granule cells [3] were 80% and > 95%, respectively. Besides, in the experiment on erythrocytes, the inhibition of hemolysis entry is “almost complete inhibition of hemolysis”. As to `Cc1ccc2c(c1)c(-c1cn(C)cc1-c1cn(C(=O)OC(C)(C)C)c3ccc(C)cc13)cn2C(=O)OC(C)(C)C` [Compound 23], the “MEC (Minimum effective concentration for more than 95% of inhibition of cell death)” value in experiment [1] worked out at 10 µM.

In the case of `Cn1cc(-c2c[nH]c3ccccc23)c(-c2cn(C(=O)OC(C)(C)C)c3ccccc23)c1` [Compound 2], the “MEC (Minimum effective concentration for more than 95% of inhibition of cell death)” value in experiment [1] came out at 0.3 µM. Still for that read-out and setting: the same measure for `Cc1[nH]c2ccccc2c1-c1cn(C)cc1-c1c(C)[nH]c2ccccc12` [Compound 11]: 0.1 µM. Still for that read-out and setting: the same measure for `COc1ccc2[nH]cc(-c3cn(C)cc3-c3c[nH]c4ccc(OC)cc34)c2c1` [Compound 13]: 0.3 µM; for `Cc1ccc2[nH]cc(-c3cn(C)cc3-c3cn(C)c4ccc(C)cc34)c2c1` [Compound 24, 3-(1,5-dimethyl-1H-indol-3-yl)-4-(5-methyl-1H-indol-3-yl)-1-methylpyrrole]: 0.1 µM; for `Cn1cc(-c2cn(C(=O)OC(C)(C)C)c3ccccc23)c(-c2cn(C(=O)OC(C)(C)C)c3ccccc23)c1` [Compound 3]: 10 µM. Take `c1ccc(-n2cc(-c3c[nH]c4ccccc34)c(-c3c[nH]c4ccccc34)c2)cc1` [Compound 17]: the “MEC (Minimum effective concentration for more than 95% of inhibition of cell death)” value in experiment [1] turned out to be 0.3 µM. On to `Cc1ccc2c(c1)c(-c1cn(C)cc1-c1cn(CCCN)c3ccc(C)cc13)cn2C` [Compound 16], for which, in the experiment with undifferentiated POGC, the “inhibition of cell death” value is recorded as “complete inhibition of cell death” and the “survival of the cells” value is “more than 95%”. For the same compound, the “MEC (Minimum effective concentration for more than 95% of inhibition of cell death)” value in experiment [1] was determined as 0.1 µM.

As to `CN(C)CCCn1cc(-c2cn(C)cc2-c2c[nH]c3ccccc23)c2ccccc21` [Compound 6], in experiment [1], the “MEC (Minimum effective concentration for more than 95% of inhibition of cell death)” value turned out to be 0.3 µM. Still for that read-out and setting: the same measure for `Cc1ccc2[nH]cc(-c3cn(C)cc3-c3cn(C(=O)OC(C)(C)C)c4ccc(C)cc34)c2c1` [Compound 22]: 0.3 µM; for `COc1ccc2c(c1)c(-c1cn(C)cc1-c1cn(C)c3ccc(OC)cc13)cn2C` [Compound 14]: 1 µM.

`Cn1cc(-c2c[nH]c3ccccc23)c(-c2cn(C)c3ccccc23)c1` [Compound 8]: the “MEC (Minimum effective concentration for more than 95% of inhibition of cell death)” value in experiment [1] came to 0.3 µM. Still for that read-out and setting: in the case of `CN(C)CCCn1cc(-c2cn(C)cc2-c2cn(CCCN(C)C)c3ccccc23)c2ccccc21` [Compound 7] it was 1 µM. Same read-out and setting: the same measure for `Cn1cc(-c2c[nH]c3ccc(F)cc23)c(-c2c[nH]c3ccc(F)cc23)c1` [Compound 12]: 1 µM; for `c1ccc(Cn2cc(-c3c[nH]c4ccccc34)c(-c3c[nH]c4ccccc34)c2)cc1` [Compound 18]: 0.3 µM.
